The numbers were not newly measured in patent publication US20240197632A1 (VETERINARY PHARMACY CORPORATION, priority 2022, published 2024), which cites them from elsewhere.

Turning to `CC(C)Cc1ccc(C(C)C(=O)O)cc1` (stereo not shown) [Ibuprofen, 2-(4-Isobutylphenyl)propanoic acid], the “general solubility property in water” value is on record as 0.0021 % wt/vol.
